# According to patent US20190350955A1, “METHODS AND PHARMACEUTICAL COMPOSITIONS FOR THE TREATMENT OF CARDIOMYOPATHIES” (INSERM (Institut National de la Sante et de la Recherche …, priority 2016, published 2019):
# Key:
# Format in all cases: in vivo, mouse
# [1] = test system: Lmna^WT/WT mice; experiment: Echocardiography in NR-diet wild type mice; details: whatever the diet and the course of the treatment
# Description: Mice were bred in an accredited animal facility (accreditation number: C-75-13-08). All experiments on mice were approved by the Comité d'éthique en expérimentation animate Charles Darwin No 5. Mice Lmna^H222P/H222P were backcrossed 8 times to 129S2/SvPasOrlRj strain mice to obtain pure genetic background. Male mice used for the studies were maintained under a 12 h light/12 h dark cycle at constant temperature (23° C.) with free access to food and water. Nicotinamide riboside (NR) complementation: Animals at 17 weeks of age were fed for 9 weeks with either a chow diet (A04: Scientific Animal Food & Engineering) or a chow diet complemented with 0.25% of NR (kindly provided by ChromaDex, Inc. California) corresponding to a dose of 400 mg/kg/day for a mouse weighing 25 g eating 4 g of food per day. […]
# Mouse transthoracic echocardiography was performed using an ACUSON 128XP/10 ultrasound with a 11 Mhz linear probe (Mountain View).MHz transducer applied to the chest wall. […] The intra ventricular septum (IVS), LV posterior wall (LVPW), LV diameter (LVD) in diastole and systole, the percentage of fractional shortening (FS) and the heart rate (HR) were measured from the mean of at least three separate cardiac cycles. […]
# [2] = test system: Lmna^H222P/H222P mice; experiment: qPCR of cardiac remodeling markers Myh7, Nppa, Col1a2 in heart; details: NR diet 9 weeks vs chow-diet
# Description: Mice were bred in an accredited animal facility (accreditation number: C-75-13-08). All experiments on mice were approved by the Comité d'éthique en expérimentation animate Charles Darwin No 5. Mice Lmna^H222P/H222P were backcrossed 8 times to 129S2/SvPasOrlRj strain mice to obtain pure genetic background. Male mice used for the studies were maintained under a 12 h light/12 h dark cycle at constant temperature (23° C.) with free access to food and water. Nicotinamide riboside (NR) complementation: Animals at 17 weeks of age were fed for 9 weeks with either a chow diet (A04: Scientific Animal Food & Engineering) or a chow diet complemented with 0.25% of NR (kindly provided by ChromaDex, Inc. California) corresponding to a dose of 400 mg/kg/day for a mouse weighing 25 g eating 4 g of food per day. Nicotinamide (NAM) treatment: Animals at 17 weeks of age were injected intraperitoneally (IP) every two days (q.a.d.) for 9 weeks with either physiologic serum or physiologic serum added with NAM at 50 mg/ml corresponding to a dose of 500 mg/kg for a mouse weighing 25 g.
# Total RNAs were extracted from around 5 mg of mouse heart using RNeasy Mini kit (Qiagen). RNAs integrity were controlled on the Bioanalyzer 2100 (Agilent). […] Relative mRNA transcript levels calculated using the 2^ΔCT method were normalized by comparison to housekeeping mRNA.
# [3] = test system: SRF^HKO mice; experiment: Myocardial NAD+ levels in SRF HKO mice (NAD recycling assay)
# From the text: Transgenic mice. All experiments with animals conformed to the Directive 2010/63/EU of the European Parliament and were approved by the ethics committee Charles Darvin #5 (agreement 00369.01). SRF^HKO mice bear the tamoxifen-inducible α-MHC-MerCrMer transgene and the Siffloxed allele (Sf/Sf) as described previously (Parlakian et al. (2005). Temporally controlled onset of dilated cardiomyopathy through disruption of the SRF gene in adult heart. Journal 112, 2930-2939; Tritsch et al. (2013). An SRF/miR-1 axis regulates NCX1 and Annexin A5 protein levels in the normal and failing heart. Journal 98, 372-380). Transgenic mice have been bred for more than 20 generations in C57BL/6N background. The mice were housed in standard animal facility (CEF. Hôpital Pitié Salpétrière, agreement A-75-13-15, 75013 Paris), under a 12-h dark/light cycle. Tamoxifen (Sigma T5648) was administrated by i.p. injection at a dose of 0.7 mg diluted in 100 μl peanut oil at day (D) 0, D1 and D2. […]
# Tissue frozen powder was resuspended in 75% ethanol, 25% HEPES 10 mM pH 7.1, buffer (20 μl/mg of tissue). […] After adjustment of dilution factors, NADH levels were calculated by substracting the NAD^+ concentration to the non-heated ethanolic extract values: NADH=NADt (non heated)−NAD^+ (heated).
# For both types of extracts (buffered ethanol or HClO4) we added 100 μL of reaction buffer (600 mM ethanol, 0.5 mM 3-(4.5-dimethylthiazol-2-yl)-2.5-diphenyltetrazolium bromide (MTT), 2 mM phenazine ethosulfate (PES), 120 mM Bicine (pH 7.8), yeast alcohol dehydrogenase (SIGMA A3263>300 u/mg.) 0.05 mg/ml. Kinetics of the reaction (OD at 550 nm, every 30 seconds for 40 minutes) was followed on a TECAN Infinite F500 microplate reader. NAD was quantified in duplicates for each sample by comparison to a range of standard NAD^+ concentration using linear regression curve equation method between NAD^+ standard concentrations and the slope of the reaction in OD units/sec. […] Cell extracts were quantified for protein concentration determined by Bradford assay.
structure (smiles),measurement,setting,value
"NC(=O)c1ccc[n+]([C@@H]2O[C@H](CO)[C@@H](O)[C@H]2O)c1 [NR, nicotinamide riboside]",cardiac structure and function by echocardiography,[1],No difference
same,"expression of Myh7, Nppa and Col1a2 (markers of cardiac remodeling)",[2],significant lowering
same,myocardial NAD,[3]; NR-enriched food (0.22%) from D5 to D50,protected against the drop in NAD
same,myocardial NAD+ levels,[3]; NR-supplemented diet for 2 weeks from D5 to D20,rescued
same,myocardial NAD+ levels,[3]; i.p. daily 1 μmole/g body weight from D8 to D15 after SRF inactivation,preserved
